Measured values as given in US8318812B2, “Therapeutic agents for the treatment of lymphoid malignancies” (The Ohio State University Research Foundation, priority 2006, dated 2012).

Legend:
[1] = tested on: CD19+ B cells from CLL patients; format: cell-based; settings: 0-10 uM FTY720; 15 CLL patients
Method: Cells: Blood was obtained from patients with B-cell CLL with informed consent under a protocol approved by the hospital internal review board. All patients examined in this series had immunophenotypically defined CLL as outlined by the modified 96 National Cancer Institute criteria. B-CLL cells were isolated from freshly donated blood using ficoll density gradient centrifugation (Ficoll-Paque Plus, Amershan Biosciences, Piscataway, N.J.). Isolated mononuclear cells were incubated in RPMI 1640 media (Gibco/Invitrogen, Carlsbad, Calif.) supplemented with 10% heat-inactivated fetal bovine serum (FBS, Hyclone Laboratories, Logan, Utah), 2 mM L-glutamine (Invitrogen, Carlsbad, Calif.), and penicillin (100 U/mL)/streptomycin (100 μg/ml) [Sigma-Aldrich, St. Louis] at 37° C. in an atmosphere of 5% CO2. Freshly isolated B-CLL cells were used in all experiments described herein. Enriched B-lymphocyte fractions were prepared by using MACS negative selection kit by Miltenyi Biotech (Auburn, Calif.) or by “Rosette-Sep” kit from Stem Cell Technologies (Vancouver, British Columbia, Canada) according to the manufacturer's instructions. Human B-lymphocyte cell lines Raji and Ramos were obtained from ATCC (Manassas, Va.) and the MEC cells were obtained from German cell line bank (Braunschweig, Germany). The 697-neo and 697-Bcl-2 cell lines were kind gift from Dr. John Reed (Burnham Institute, La Jolla, Calif.). Cells were cultured at 37° C. in an atmosphere of 5% CO2 in RPMI 1640 media (Gibco/Invitrogen, Carlsbad, Calif.) supplemented with 10% fetal bovine serum (Gibco/Invitrogen).
Analysis of cell viability and apoptosis: The cell viability was carried out by dual staining with Annexin V conjugated to flourescein-isothyocyanate (FITC) and Propidium iodide (PI) as described previously. Briefly, 1×10^6 cells were stained with Annexin V-FITC (BD Pharmingen) and Propidium iodide (BD Pharmingen) for 15 minutes in dark and analyzed by flow cytometry using a Beckman-Coulter EPICS XL cytometer (Beckman-Coulter, Miami, Fla.). Apoptotic cells were identified as Annexin V and/or PI positive cells. Cells excluding both FITC and PI were considered to be viable. The Annexin V^−/PI^− cells are represented as % live cells normalized to untreated controls.
B-CLL cells are reported to be resistant to apoptosis in-vivo. To systematically analyze the effects of FTY720 on B-CLL cells, purified CD19^+ cells from B-CLL patients were incubated with increasing concentrations of FTY720 ranging from 0, 0.5, 1, 1.5, 2.5, 5 or 10 uM. The cytotoxic effects were independently determined by flow cytometry using propidium iodide (PI) and Annexin V conjugated FITC reagents. Populations excluding both PI and Annexin V-FITC staining were considered viable. […]

[2] = tested on: acute myeloid leukemia (AML) cell lines; assay: MTS proliferation assay in AML cell lines; format: cell-based; settings: 48 hours
Method: Cell cultures were exposed for 48 hours to vehicle control and increasing concentrations of FTY720, and subsequently subjected to MTS assay per manufacturer's instructions. Mean concentrations (FIG. 9A) at which proliferation was inhibited by 50% (IC50) and representative dose curves (FIG. 9B) are shown. […] Using MTS assay, inhibition of cell proliferation for various derivatives was examined.

Mino cells = assay: Annexin V/PI toxicity in Mino cells; format: cell-based, Human; settings: Homo sapiens, WinNolin sigmoid inhibitory model
Method: (§1) Primary MCL cells were isolated from PBMC (with informed patient consent under a protocol approved by IRB) as described before. All the MCL patients were identified as outlined by the World Health Organization (WHO) classification. Human mantle cell lymphoma patient cell lines (Mino and Jeko) were obtained from Dr. Raymond Lai. Primary cells or MCL cell lines were incubated in RPMI 1640 media, supplemented with 10%-20% heat-inactivated fetal bovine serum, 2 mM L-glutamine and penicillin (100 U/mL)/streptomycin ([…]) at 37° C. in an atmosphere of 5% CO2. FTY720 was synthesized as previously described. Toxicity was determined by flow cytometry using Annexin-V-FITC and Propidium Iodide (PI) staining. Apoptotic cells were identified as Annexin-V+ and/or PI+ cells. Cells excluding both FITC and PI were considered viable. Western Blotting was performed as described previously using indicated antibodies. The PARP (Ab-2) and Caspase 9 antibodies were purchased from Oncogene/Calbiochem/EMD Biosciences (San Diego, Calif.). Cyclin D1, Akt, Actin, Mcl-1, p-ERK, ERK and Bcl-2 were obtained from Santa Cruz biotech (Santa Cruz, Calif.).
Several therapeutic agents, including fludarabine, chlorambucil, 2-chloro-2-deoxyadenosine and glucocorticoids, induce toxicity in B cell malignancies through activating caspases, the cysteine proteases of CED3/ICE family. Inhibition of these caspases results in abrogation of apoptosis mediated by the toxic stimuli. To determine if caspase activation is involved in FTY720-induced cytotoxicity in MCL, we pretreated Mino cells with 150 μM broad spectrum caspase inhibitor z-VAD-fmk. […] Activation of caspases results in cleavage of key cellular proteins including poly-ADP-ribose polymerase (PARP).

Akt = assay: Western blot of p-Akt and Akt in primary MCL cells; format: cell-based, Human
Method: as §1, with “The PARP (Ab-2) and Caspase 9 antibodies were purchased from Oncogene/Calbiochem/EMD Biosciences (San Diego, Calif.). Cyclin D1, Akt, Actin, Mcl-1, p-ERK, ERK and Bcl-2 were obtained from Santa Cruz biotech (Santa Cruz, Calif.).” left out
FTY720 induced apoptosis is associated with down-modulation of Cyclin D1 and Akt. […] To determine if the FTY720 induced apoptosis is mediated through modulation of these targets relevant to the pathogenesis of the disease, we evaluated the effect of FTY720 on levels of Cyclin D1, p-Akt and Akt proteins by Wester Blotting analysis using specific antibodies in primary MCL cells and cell lines. […]

PARP = assay: Western blot of PARP processing in Mino cells; format: cell-based, Human; settings: Mino cells 24 hrs post treatment
Method: as §1
Several therapeutic agents, including fludarabine, chlorambucil, 2-chloro-2-deoxyadenosine and glucocorticoids, induce toxicity in B cell malignancies through activating caspases, the cysteine proteases of CED3/ICE family. […]

For `CCCCCCCCc1ccc(CCC(N)(CO)CO)cc1.Cl` [FTY720, 2-Amino-2-[2-(4-octylphenyl)ethyl]propane 1,3-diol hydrochloride], the “viability of CD19+ B cells from CLL patients” value [1] was “dose and time dependent decrease in viability”, the “proliferation of AML cell lines (MTS)” value [2] was “inhibits proliferation” and the IC50 (Mino cells) was 11.9 µM. The p-Akt level (Akt) was “decrease in p-Akt” and the PARP processing (PARP) was “PARP processing comparable to the levels seen with Fludarabine”.
